What was measured:
Test in all cases: relative viability (nuclei count vs DMSO), 5 days (fraction); higher = more cells survive
NCI-H358 = system: NCI-H358
Procedure, shortened: (§1)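 Lung cancer cell lines in 1536-well plates were dosed by pin tool the day after seeding, either with one drug alone or with a fixed anchor-drug dose plus five library-drug doses (not always all listed) in √10 steps. After 5 days, cells were fixed and their nuclei stained in one step (final 0.05% Triton X-100, 1% formaldehyde, 1 ug/ml Hoechst), then counted on 4× images. Relative viability is the nuclei count in treated wells divided by that in vehicle wells. Values are medians of duplicate plates.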

NCI-H650 = system: NCI-H650
Procedure, shortened: as §1

NCI-H838 = system: NCI-H838
Procedure, shortened: as §1

NCI-H1792 = system: NCI-H1792
Procedure, shortened: as §1

SK-MES-1 = system: SK-MES-1
Procedure, shortened: as §1

NCI-H596 = system: NCI-H596
Procedure, shortened: as §1

HARA = system: HARA
Procedure, shortened: as §1

201T = system: 201T
Procedure, shortened: as §1

EKVX = system: EKVX
Procedure, shortened: as §1

COR-L23 = system: COR-L23
Procedure, shortened: as §1

HCC-827 = system: HCC-827
Procedure, shortened: as §1

BEN = system: BEN
Procedure, shortened: as §1

NCI-H1437 = system: NCI-H1437
Procedure, shortened: as §1

A-427 = system: A-427
Procedure, shortened: as §1

HCC-15 = system: HCC-15
Procedure, shortened: as §1

HCC-44 = system: HCC-44
Procedure, shortened: as §1

NCI-H1975 = system: NCI-H1975
Procedure, shortened: as §1

NCI-H23 = system: NCI-H23
Procedure, shortened: as §1

NCI-H1666 = system: NCI-H1666
Procedure, shortened: as §1

NCI-H441 = system: NCI-H441
Procedure, shortened: as §1

Molecule `CCN(CC)CCCCNc1ncc2cc(-c3cc(OC)cc(OC)c3)c(NC(=O)NC(C)(C)C)nc2n1` + Cc1nc(NC(=O)N2CCC[C@H]2C(N)=O)sc1-c1ccnc(C(C)(C)C(F)(F)F)c1 [Alpelisib] (partner 2 µM) has a relative viability (NCI-H358; first compound 0.01 µM) of 1.06, a relative viability (NCI-H358; first compound 0.03162 µM) of 0.901 and a relative viability (NCI-H358; first compound 0.1 µM) of 1.01. It also gave a relative viability (NCI-H358; first compound 0.3162 µM) of 0.848, a relative viability (NCI-H358; first compound 1 µM) of 0.725 and a relative viability (NCI-H650; first compound 0.01 µM) of 1.04. It also gave a relative viability (NCI-H650; first compound 0.03162 µM) of 1.04, a relative viability (NCI-H650; first compound 0.1 µM) of 1.21 and a relative viability (NCI-H650; first compound 0.3162 µM) of 1.09. For the same molecule, the relative viability (NCI-H650; first compound 1 µM) was 0.865, the relative viability (NCI-H838; first compound 0.01 µM) was 1.11 and the relative viability (NCI-H838; first compound 0.03162 µM) was 0.964. The relative viability (NCI-H838; first compound 0.1 µM) was 0.996, the relative viability (NCI-H838; first compound 0.3162 µM) was 1.04 and the relative viability (NCI-H838; first compound 1 µM) was 0.602. For the same molecule, the relative viability (NCI-H1792; first compound 0.01 µM) was 0.797, the relative viability (NCI-H1792; first compound 0.03162 µM) was 0.674 and the relative viability (NCI-H1792; first compound 0.1 µM) was 0.51. It also gave a relative viability (NCI-H1792; first compound 0.3162 µM) of 0.766, a relative viability (NCI-H1792; first compound 1 µM) of 0.563 and a relative viability (SK-MES-1; first compound 0.01 µM) of 1.12. For the same molecule, the relative viability (SK-MES-1; first compound 0.03162 µM) was 0.934, the relative viability (SK-MES-1; first compound 0.1 µM) was 0.877 and the relative viability (SK-MES-1; first compound 0.3162 µM) was 1.03. It also gave a relative viability (SK-MES-1; first compound 1 µM) of 0.849, a relative viability (NCI-H596; first compound 0.01 µM) of 0.528 and a relative viability (NCI-H596; first compound 0.03162 µM) of 0.48. It also gave a relative viability (NCI-H596; first compound 0.1 µM) of 0.478, a relative viability (NCI-H596; first compound 0.3162 µM) of 0.549 and a relative viability (NCI-H596; first compound 1 µM) of 0.368. It also gave a relative viability (HARA; first compound 0.01 µM) of 1.06, a relative viability (HARA; first compound 0.03162 µM) of 0.872 and a relative viability (HARA; first compound 0.1 µM) of 1.03. The relative viability (HARA; first compound 0.3162 µM) was 0.801, the relative viability (HARA; first compound 1 µM) was 0.685 and the relative viability (201T; first compound 0.01 µM) was 1.05. For the same molecule, the relative viability (201T; first compound 0.03162 µM) was 1.01, the relative viability (201T; first compound 0.1 µM) was 1.09 and the relative viability (201T; first compound 0.3162 µM) was 1.1. For the same molecule, the relative viability (201T; first compound 1 µM) was 0.97, the relative viability (EKVX; first compound 0.01 µM) was 0.818 and the relative viability (EKVX; first compound 0.03162 µM) was 0.898. The relative viability (EKVX; first compound 0.1 µM) was 0.875, the relative viability (EKVX; first compound 0.3162 µM) was 1.04 and the relative viability (EKVX; first compound 1 µM) was 0.893. It also gave a relative viability (COR-L23; first compound 0.01 µM) of 0.819, a relative viability (COR-L23; first compound 0.03162 µM) of 1.02 and a relative viability (COR-L23; first compound 0.1 µM) of 1.19. For the same molecule, the relative viability (COR-L23; first compound 0.3162 µM) was 0.787, the relative viability (COR-L23; first compound 1 µM) was 0.856 and the relative viability (HCC-827; first compound 0.01 µM) was 0.968. It also gave a relative viability (HCC-827; first compound 0.03162 µM) of 0.967, a relative viability (HCC-827; first compound 0.1 µM) of 1.02 and a relative viability (HCC-827; first compound 0.3162 µM) of 1.16. For the same molecule, the relative viability (HCC-827; first compound 1 µM) was 1.02, the relative viability (BEN; first compound 0.01 µM) was 1.17 and the relative viability (BEN; first compound 0.03162 µM) was 0.891. The relative viability (BEN; first compound 0.1 µM) was 0.882, the relative viability (BEN; first compound 0.3162 µM) was 1.12 and the relative viability (BEN; first compound 1 µM) was 0.801. It also gave a relative viability (NCI-H1437; first compound 0.01 µM) of 1.23, a relative viability (NCI-H1437; first compound 0.03162 µM) of 0.944 and a relative viability (NCI-H1437; first compound 0.1 µM) of 1. It also gave a relative viability (NCI-H1437; first compound 0.3162 µM) of 1.03, a relative viability (NCI-H1437; first compound 1 µM) of 0.947 and a relative viability (A-427; first compound 0.01 µM) of 1.08. It also gave a relative viability (A-427; first compound 0.03162 µM) of 1.08, a relative viability (A-427; first compound 0.1 µM) of 1.1 and a relative viability (A-427; first compound 0.3162 µM) of 1.1. The relative viability (A-427; first compound 1 µM) was 0.903, the relative viability (HCC-15; first compound 0.01 µM) was 1.03 and the relative viability (HCC-15; first compound 0.03162 µM) was 0.885. It also gave a relative viability (HCC-15; first compound 0.1 µM) of 0.947, a relative viability (HCC-15; first compound 0.3162 µM) of 0.966 and a relative viability (HCC-15; first compound 1 µM) of 0.868. For the same molecule, the relative viability (HCC-44; first compound 0.01 µM) was 0.93, the relative viability (HCC-44; first compound 0.03162 µM) was 0.9 and the relative viability (HCC-44; first compound 0.1 µM) was 1.12. It also gave a relative viability (HCC-44; first compound 0.3162 µM) of 0.87, a relative viability (HCC-44; first compound 1 µM) of 0.772 and a relative viability (NCI-H1975; first compound 0.01 µM) of 0.699. The relative viability (NCI-H1975; first compound 0.03162 µM) was 0.691, the relative viability (NCI-H1975; first compound 0.1 µM) was 0.707 and the relative viability (NCI-H1975; first compound 0.3162 µM) was 0.787. It also gave a relative viability (NCI-H1975; first compound 1 µM) of 0.451, a relative viability (NCI-H23; first compound 0.01 µM) of 0.706 and a relative viability (NCI-H23; first compound 0.03162 µM) of 0.735. For the same molecule, the relative viability (NCI-H23; first compound 0.1 µM) was 0.851, the relative viability (NCI-H23; first compound 0.3162 µM) was 0.653 and the relative viability (NCI-H23; first compound 1 µM) was 0.678. For the same molecule, the relative viability (NCI-H1666; first compound 0.01 µM) was 0.963, the relative viability (NCI-H1666; first compound 0.03162 µM) was 0.889 and the relative viability (NCI-H1666; first compound 0.1 µM) was 1.02. The relative viability (NCI-H1666; first compound 0.3162 µM) was 0.995, the relative viability (NCI-H1666; first compound 1 µM) was 0.74 and the relative viability (NCI-H441; first compound 0.01 µM) was 0.801. The relative viability (NCI-H441; first compound 0.03162 µM) was 0.62, the relative viability (NCI-H441; first compound 0.1 µM) was 0.698 and the relative viability (NCI-H441; first compound 0.3162 µM) was 0.708. It also gave a relative viability (NCI-H441; first compound 1 µM) of 0.773.

— the supplement of paper PMC10307832
